According to PubChem BioAssay (NCI):
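Five compound concentrations were applied to cells in 96-well plates for 48 hours; endpoints were derived by simple linear interpolation of the resulting dose-response curve. At the TGI there is no net growth.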

What was measured:
Assay in all cases: DTP human tumour cell line panel, 48 h
OVCAR-5 ovarian = system: OVCAR-5 ovarian
RPMI-8226 leukemia = system: RPMI-8226 leukemia
UACC-257 melanoma = system: UACC-257 melanoma
K-562 leukemia = system: K-562 leukemia
SK-MEL-5 melanoma = system: SK-MEL-5 melanoma
HCC-2998 colon = system: HCC-2998 colon
SN12C renal = system: SN12C renal
NCI-H522 lung = system: NCI-H522 lung
RXF 393 renal = system: RXF 393 renal
NCI-H23 lung = system: NCI-H23 lung

Structure (SMILES): Cc1cc(C)c2c(c1)CC1(Cc3c(C)ccc(C)c3C1=O)C2=O (stereo unspecified)
- TGI (OVCAR-5 ovarian): > 100 µM
- TGI (RPMI-8226 leukemia): > 100 µM
- TGI (UACC-257 melanoma): > 100 µM
- TGI (K-562 leukemia): > 100 µM
- TGI (SK-MEL-5 melanoma): > 100 µM
- TGI (HCC-2998 colon): > 100 µM
- TGI (SN12C renal): > 100 µM
- TGI (NCI-H522 lung): > 100 µM
- TGI (RXF 393 renal): > 100 µM

Structure (SMILES): Cc1ccc([N+](=O)[O-])cc1S(=O)(=O)Nc1ccc(C2=NNC(c3ccccc3O)C2)cc1 (stereo unspecified)
- TGI (OVCAR-5 ovarian): > 100 µM
- TGI (RPMI-8226 leukemia): > 100 µM
- TGI (UACC-257 melanoma): > 100 µM
- TGI (K-562 leukemia): > 100 µM
- TGI (SK-MEL-5 melanoma): 58.6 µM
- TGI (HCC-2998 colon): > 100 µM
- TGI (NCI-H23 lung): 67.7 µM
- TGI (SN12C renal): 82.9 µM
- TGI (NCI-H522 lung): > 100 µM
- TGI (RXF 393 renal): 40.5 µM

Structure (SMILES): CCCCCCCC/C=C\CCCCCCCC(=O)O
- TGI (OVCAR-5 ovarian): > 500 µM
- TGI (RPMI-8226 leukemia): 277 µM
- TGI (UACC-257 melanoma): 201 µM
- TGI (K-562 leukemia): 219 µM
- TGI (SK-MEL-5 melanoma): > 282 µM
- TGI (HCC-2998 colon): > 500 µM
- TGI (NCI-H23 lung): 146 µM
- TGI (SN12C renal): 199 µM
- TGI (NCI-H522 lung): 210 µM
- TGI (RXF 393 renal): 168 µM

Structure (SMILES): CCN(CC)CCCNc1ncc(C)c2[nH]c3ccncc3c12
- TGI (OVCAR-5 ovarian): 26.7 µM
- TGI (RPMI-8226 leukemia): > 100 µM
- TGI (UACC-257 melanoma): 18.5 µM
- TGI (K-562 leukemia): > 100 µM
- TGI (SK-MEL-5 melanoma): 28.1 µM
- TGI (HCC-2998 colon): 23.6 µM
- TGI (NCI-H23 lung): 34.6 µM
- TGI (SN12C renal): 30.5 µM
- TGI (NCI-H522 lung): 22.8 µM
- TGI (RXF 393 renal): 23 µM

Structure (SMILES): N=c1c2c(=S)n(-c3ccccc3)c(=S)n(-c3ccccc3)c2nc(SCCCN2CCN(c3cccc(Cl)c3)CC2)n1-c1ccccc1
- TGI (OVCAR-5 ovarian): > 100 µM
- TGI (RPMI-8226 leukemia): > 100 µM
- TGI (UACC-257 melanoma): > 100 µM
- TGI (K-562 leukemia): > 100 µM
- TGI (SK-MEL-5 melanoma): > 100 µM
- TGI (HCC-2998 colon): > 100 µM
- TGI (NCI-H23 lung): > 100 µM
- TGI (NCI-H522 lung): > 100 µM
- TGI (RXF 393 renal): > 100 µM

Structure (SMILES): O=C(O)CNc1ccc(C(=O)O)cc1
- TGI (OVCAR-5 ovarian): > 100 µM
- TGI (RPMI-8226 leukemia): > 100 µM
- TGI (UACC-257 melanoma): > 100 µM
- TGI (K-562 leukemia): > 100 µM
- TGI (SK-MEL-5 melanoma): > 100 µM
- TGI (NCI-H23 lung): > 100 µM
- TGI (SN12C renal): > 100 µM
- TGI (NCI-H522 lung): > 100 µM
- TGI (RXF 393 renal): > 100 µM

Structure (SMILES): O=C(O)CS
- TGI (OVCAR-5 ovarian): > 100 µM
- TGI (RPMI-8226 leukemia): > 100 µM
- TGI (UACC-257 melanoma): > 100 µM
- TGI (K-562 leukemia): > 100 µM
- TGI (SK-MEL-5 melanoma): > 100 µM
- TGI (HCC-2998 colon): > 100 µM
- TGI (NCI-H23 lung): > 100 µM
- TGI (SN12C renal): > 100 µM
- TGI (NCI-H522 lung): > 100 µM
- TGI (RXF 393 renal): > 100 µM

Structure (SMILES): CCNc1nnc(-c2nsc3ccccc23)s1
- TGI (OVCAR-5 ovarian): > 100 µM
- TGI (RPMI-8226 leukemia): > 100 µM
- TGI (UACC-257 melanoma): > 100 µM
- TGI (K-562 leukemia): > 100 µM
- TGI (SK-MEL-5 melanoma): > 100 µM
- TGI (HCC-2998 colon): > 100 µM
- TGI (NCI-H23 lung): > 100 µM
- TGI (SN12C renal): > 100 µM
- TGI (RXF 393 renal): > 100 µM
